Positions of bridges follow the written chain, without caps; N, C: chain ends. Non-standard residues stand in square brackets, D forms with d. Residues, ends and D or L forms follow the SMILES beside them. Nle = CCCC[C@H](N)C(=O)O
Assays:
[1] = target: T1, TMPRSS2 (Homo sapiens, UniProt O15393); assay: cell-based; conditions: overexpressing cell system; read-out: IC50 against TMPRSS2 (converted)
T1 construct: expressed in transfected cells

[2] = tested on: IL-6; assay: IL-6 secretion in IMG microglial cells after LPS (ELISA); format: cell-based; conditions: IMG microglial cells, LPS 100 ng/ml, 24 hours
[3] = tested on: NFκB; assay: NFκB reporter assay (SEAP) in THP1-XBlue-MD2-CD14 cells after LPS; format: cell-based
Description: The NFκB inducible Secreted Embryonic Alkaline Phosphatase (SEAP) was measured in the supernatant and read for absorbance.
(§1) Various SERPIN peptide derivatives were screened in vitro for their ability to reduce TNFα and NFκB secretion via LRP-1 activation. The NFκB reporter cells (THP1-XBlue-MD2-CD14 cells) were treated with each peptide derivative at various concentrations, up to 100 μg/ml before being insulted with LPS (5 ng/ml) and incubated overnight. The NFκB inducible Secreted Embryonic Alkaline Phosphatase (SEAP) was measured in the supernatant and read for absorbance. IMG Microglial cells were treated with each peptide derivative at various concentrations, up to 100 μg/ml before LPS (100 ng/ml) stimulation for 24 hours. An ELISA was used to measure TNFα in the supernatant ([…]).

[4] = tested on: TNFα; assay: TNFα secretion in IMG microglial cells after LPS (ELISA); format: cell-based; conditions: FIG. 6A/7, up to 50 μg/mL, LPS 100 ng/ml 24 hours; versus SP163M, SA7
Description: In the NFκB reporter cells, the NFκB inducible Secreted Embryonic Alkaline Phosphatase (SEAP) was measured in the supernatant. TNFα secretion in the supernatant was measured via ELISA.
as §1

T1 sequence (O15393 whole entry): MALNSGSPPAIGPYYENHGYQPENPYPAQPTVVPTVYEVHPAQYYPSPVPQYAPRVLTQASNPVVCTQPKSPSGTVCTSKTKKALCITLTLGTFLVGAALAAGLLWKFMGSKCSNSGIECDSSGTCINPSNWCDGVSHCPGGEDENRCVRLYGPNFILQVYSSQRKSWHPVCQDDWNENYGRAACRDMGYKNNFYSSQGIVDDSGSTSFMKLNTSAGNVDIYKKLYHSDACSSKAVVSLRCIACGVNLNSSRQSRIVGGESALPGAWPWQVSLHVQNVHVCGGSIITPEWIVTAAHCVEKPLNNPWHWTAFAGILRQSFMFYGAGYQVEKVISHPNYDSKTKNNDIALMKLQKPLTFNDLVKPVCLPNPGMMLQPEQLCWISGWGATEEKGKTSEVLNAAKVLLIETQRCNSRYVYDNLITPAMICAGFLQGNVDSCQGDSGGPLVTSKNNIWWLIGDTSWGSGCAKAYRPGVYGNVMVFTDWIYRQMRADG

## CCCC[C@@H]1NC(=O)[C@H](CC(C)C)NC(=O)[C@H](Cc2ccccc2)NC(=O)[C@H](C(C)C)NC(=O)[C@H](Cc2ccccc2)NC(=O)[C@@H]2CCCN2C(=O)[C@@H](NC(=O)[C@H](CCCNC(=N)N)NC(=O)[C@H](CCCNC(=N)N)NC(=O)[C@H](CCCNC(=N)N)NC(C)=O)CSSC[C@@H](C(=O)O)NC1=O [SA7] (Ac-RRRCPFVFL[Nle]C-OH; disulfide 4-11)
[1]
  IC50: 0.0572 µM

## Ac- RRRKFT[Nal]]LD (cyclic) [Peptide A3-7]
[2]
  EC50 IL-6: 3.651 µg/mL
[3]; NFκB reporter cells, LPS 5 ng/ml
  EC50 NFκB: 22.41 µg/mL

## HN-RRRFVFLAD (cyclic) (not fully specified; cyclised or stapled) [Peptide A2-3]
[4]
  activity in reducing TNFα: superior activities in reducing TNFα
[3]; FIG. 6B/7, up to 50 μg/mL, LPS 5 ng/ml 24 hours, versus SP163M, SA7
  activity in reducing NFκB activation: superior activities
